target: T1, human GlyT1c transporter (Homo sapiens, UniProt P48067); assay: Radioligand binding assay using recombinant CHO cell membranes expressing human GlyT1; conditions: radioligand binding to human GlyT1c transporter-expressing membranes
T1 construct: expressed in transfected cells; host or cells: CHO cells (recombinant; line hGlyT1c_5_CHO is named for the uptake assay)
T1 sequence (P48067 1-706): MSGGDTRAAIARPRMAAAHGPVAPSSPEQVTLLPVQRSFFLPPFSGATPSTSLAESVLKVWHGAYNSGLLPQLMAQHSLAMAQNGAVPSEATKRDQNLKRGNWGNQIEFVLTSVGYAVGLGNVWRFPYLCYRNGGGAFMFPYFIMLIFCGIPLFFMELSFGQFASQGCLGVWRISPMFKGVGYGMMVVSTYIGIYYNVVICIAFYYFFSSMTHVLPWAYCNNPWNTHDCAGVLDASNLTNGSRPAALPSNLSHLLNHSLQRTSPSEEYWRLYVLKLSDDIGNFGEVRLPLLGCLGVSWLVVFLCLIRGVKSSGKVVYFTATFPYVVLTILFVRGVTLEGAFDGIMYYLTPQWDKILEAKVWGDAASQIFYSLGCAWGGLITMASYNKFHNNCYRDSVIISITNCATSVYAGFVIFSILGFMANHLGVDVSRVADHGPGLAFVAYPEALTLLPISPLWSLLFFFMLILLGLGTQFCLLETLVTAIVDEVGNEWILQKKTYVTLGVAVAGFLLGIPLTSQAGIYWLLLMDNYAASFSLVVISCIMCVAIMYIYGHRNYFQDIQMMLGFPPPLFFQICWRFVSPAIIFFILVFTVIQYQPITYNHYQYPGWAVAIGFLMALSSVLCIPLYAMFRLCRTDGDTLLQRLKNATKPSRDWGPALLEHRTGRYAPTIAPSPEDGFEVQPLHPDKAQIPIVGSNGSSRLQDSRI
From the text: 2. Radioligand binding assays using recombinant CHO cell membranes expressing human GlyT1: […]

SMILES	Ki [µM]
Cn1cnc(S(=O)(=O)N2C[C@@H](Nc3cccc(C(F)(F)F)n3)[C@H](c3ccccc3)C2)c1 (relative stereo) [Example 210, N-{trans-1-[(1-methyl-1H-imidazol-4-yl)sulfonyl]-4-phenylpyrrolidin-3-yl}-6-(trifluoromethyl)pyridin-2-amine]	≤ 10
Cn1cnc(S(=O)(=O)N2C[C@@H](NCc3ccc(C(F)(F)F)cc3Cl)[C@H](c3ccc(F)cc3)C2)c1 [Example 321, (3S,4R)-N-[2-chloro-4-(trifluoromethyl)benzyl]-4-(4-fluorophenyl)-1-[(1-methyl-1H-imidazol-4-yl)sulfonyl]pyrrolidin-3-amine]	≤ 1
Cn1cnc(S(=O)(=O)N2C[C@@H](C(=O)Nc3ccc(F)c(C(F)(F)F)c3)[C@H](c3ccc(F)cc3)C2)c1 (relative stereo) [Example 274, trans-4-(4-fluorophenyl)-N-[4-fluoro-3-(trifluoromethyl)phenyl]-1-[(1-methyl-1H-imidazol-4-yl)sulfonyl]pyrrolidine-3-carboxamide]	≤ 0.1
Cc1cc(S(=O)(=O)N2CC(Nc3ccc(F)c(F)c3)C(c3ccccc3)C2)c(C)s1 (stereo not shown) [Example 517, N-(3,4-difluorophenyl)-1-[(2,5-dimethylthiophen-3-yl)sulfonyl]-4-phenylpyrrolidin-3-amine]	≤ 10
Cn1cnc(S(=O)(=O)N2C[C@@H](COc3ccc(Cl)c(C(F)(F)F)c3)[C@H](c3ccc(F)cc3)C2)c1 (relative stereo) [Example 249, 4-{[trans-3-{[4-chloro-3-(trifluoromethyl)phenoxy]methyl}-4-(4-fluorophenyl)pyrrolidin-1-yl]sulfonyl}-1-methyl-1H-imidazole]	≤ 1
Cn1cnc(S(=O)(=O)N2C[C@@H](NC(=O)c3ccccc3)[C@H](c3ccccc3)C2)c1 (relative stereo) [Example 25, N-{trans-1-[(1-methyl-1H-imidazol-4-yl)sulfonyl]-4-phenylpyrrolidin-3-yl}benzamide]	≤ 10
Cn1cnc(S(=O)(=O)N2C[C@@H](Nc3ccc(F)cc3)[C@H](c3ccccc3Cl)C2)c1 (relative stereo) [Example 253, trans-4-(2-chlorophenyl)-N-(4-fluorophenyl)-1-[(1-methyl-1H-imidazol-4-yl)sulfonyl]pyrrolidin-3-amine]	≤ 1
Cc1noc(C)c1S(=O)(=O)N1CC(Nc2ccc(F)c(F)c2)C(c2ccccc2)C1 (stereo not shown) [Example 513, N-(3,4-difluorophenyl)-1-[(3,5-dimethyl-1,2-oxazol-4-yl)sulfonyl]-4-phenylpyrrolidin-3-amine]	> 10
Cn1cnc(S(=O)(=O)N2C[C@@H](C(=O)c3ccc(OC(F)(F)F)cc3)[C@H](c3ccc(F)cc3)C2)c1 (relative stereo) [Example 363, {Trans-4-(4-fluorophenyl)-1-[(1-methyl-1H-imidazol-4-yl)sulfonyl]pyrrolidin-3-yl}[4-(trifluoromethoxy)phenyl]methanone]	≤ 0.1
Cn1cnc(S(=O)(=O)N2C[C@H](NC(=O)C3CCC(C(F)(F)F)CC3)[C@@H](c3ccc(F)cc3)C2)c1 (stereo partly drawn) [Example 696, N-{(3R,4S)-4-(4-fluorophenyl)-1-[(1-methyl-1H-imidazol-4-yl)sulfonyl]pyrrolidin-3-yl}-4-(trifluoromethyl)cyclohexanecarboxamide]	≤ 10
CCOCCCNC(=O)[C@@H]1CN(S(=O)(=O)c2cn(C)cn2)C[C@H]1c1ccc(F)cc1 [Example 578, (3S,4R)-N-(3-ethoxypropyl)-4-(4-fluorophenyl)-1-[(1-methyl-1H-imidazol-4-yl)sulfonyl]pyrrolidine-3-carboxamide]	≤ 10
Cn1cnc(S(=O)(=O)N2C[C@@H](C(=O)NCc3ccc(F)cc3)[C@H](c3ccc(F)cc3)C2)c1 (relative stereo) [Example 630, Trans-N-(4-fluorobenzyl)-4-(4-fluorophenyl)-1-[(1-methyl-1H-imidazol-4-yl)sulfonyl]pyrrolidine-3-carboxamide]	≤ 0.1
Cn1cnc(S(=O)(=O)N2C[C@@H](NC(=O)c3ccc(C(F)(F)F)cc3Cl)[C@H](c3ccc(F)cc3)C2)c1 (relative stereo) [Example 62, 2-chloro-N-{trans-4-(4-fluorophenyl)-1-[(1-methyl-1H-imidazol-4-yl)sulfonyl]pyrrolidin-3-yl}-4-(trifluoromethyl)benzamide]	≤ 0.1
Cn1cnc(S(=O)(=O)N2C[C@H](NCc3cc(Cl)ccc3OC(F)F)[C@@H](c3ccccc3)C2)c1 [Example 569, (3R,4S)-N-[5-chloro-2-(difluoromethoxy)benzyl]-1-[(1-methyl-1H-imidazol-4-yl)sulfonyl]-4-phenylpyrrolidin-3-amine]	≤ 1
Cn1cnc(S(=O)(=O)N2C[C@@H](C(=O)NCc3ccc(F)c(F)c3)[C@H](c3ccc(F)cc3)C2)c1 (relative stereo) [Example 631, Trans-N-(3,4-difluorobenzyl)-4-(4-fluorophenyl)-1-[(1-methyl-1H-imidazol-4-yl)sulfonyl]pyrrolidine-3-carboxamide]	≤ 0.01
CCC(CC)CN[C@H]1CN(S(=O)(=O)c2cn(C)cn2)C[C@@H]1c1ccccc1 [Example 449, (3R,4S)-N-(2-ethylbutyl)-1-[(1-methyl-1H-imidazol-4-yl)sulfonyl]-4-phenylpyrrolidin-3-amine]	≤ 1
CS(=O)(=O)N1C[C@@H](NC(=O)c2cccc(C(F)(F)F)c2Cl)[C@H](c2cc(F)c(F)cc2F)C1 (relative stereo) [Example 4, 2-chloro-N-[trans-1-(methylsulfonyl)-4-(2,4,5-trifluorophenyl)pyrrolidin-3-yl]-3-(trifluoromethyl)benzamide]	≥ 10
Cn1cnc(S(=O)(=O)N2C[C@H](NCc3ccc(C(F)(F)F)cc3Cl)[C@@H](c3ccccc3)C2)c1 [Example 394, (3R,4S)-N-[2-chloro-4-(trifluoromethyl)benzyl]-1-[(1-methyl-1H-imidazol-4-yl)sulfonyl]-4-phenylpyrrolidin-3-amine]	≤ 0.01
Cn1cnc(S(=O)(=O)N2C[C@H](NCCc3cccc(Cl)c3)[C@@H](c3ccccc3)C2)c1 [Example 468, (3R,4S)-N-[2-(3-chlorophenyl)ethyl]-1-[(1-methyl-1H-imidazol-4-yl)sulfonyl]-4-phenylpyrrolidin-3-amine]	≤ 0.1
CCOCCNC(=O)[C@@H]1CN(S(=O)(=O)c2cn(C)cn2)C[C@H]1c1ccc(F)cc1 [Example 584, (3S,4R)-N-(2-ethoxyethyl)-4-(4-fluorophenyl)-1-[(1-methyl-1H-imidazol-4-yl)sulfonyl]pyrrolidine-3-carboxamide]	≤ 10
Cn1cnc(S(=O)(=O)N2C[C@@H](COc3ccc(F)c(Cl)c3)[C@H](c3ccc(F)cc3)C2)c1 (relative stereo) [Example 318, 4-{[Trans-3-[(3-chloro-4-fluorophenoxy)methyl]-4-(4-fluorophenyl)pyrrolidin-1-yl]sulfonyl}-1-methyl-1H-imidazole]	≤ 1
Cn1cnc(S(=O)(=O)N2C[C@H](NC(=O)c3cnc(Cl)cn3)[C@@H](c3ccccc3)C2)c1 [Example 415, 5-chloro-N-{(3R,4S)-1-[(1-methyl-1H-imidazol-4-yl)sulfonyl]-4-phenylpyrrolidin-3-yl}pyrazine-2-carboxamide]	≤ 10
Cn1cnc(S(=O)(=O)N2C[C@@H](CNc3ccccc3)[C@H](c3ccc(F)cc3)C2)c1 (relative stereo) [Example 290, N-({trans-4-(4-fluorophenyl)-1-[(1-methyl-1H-imidazol-4-yl)sulfonyl]pyrrolidin-3-yl}methyl)aniline]	≤ 10
Cn1cnc(S(=O)(=O)N2C[C@H](NCC3CCC(F)(F)CC3)[C@@H](c3ccccc3)C2)c1 [Example 554, (3R,4S)-N-[(4,4-difluorocyclohexyl)methyl]-1-[(1-methyl-1H-imidazol-4-yl)sulfonyl]-4-phenylpyrrolidin-3-amine]	≤ 1
CCOc1cc(N[C@H]2CN(S(=O)(=O)c3cn(C)cn3)C[C@@H]2c2ccccc2)ncn1 [Example 620, 6-ethoxy-N-{(3R,4S)-1-[(1-methyl-1H-imidazol-4-yl)sulfonyl]-4-phenylpyrrolidin-3-yl}pyrimidin-4-amine]	≤ 1
Cn1cnc(S(=O)(=O)N2C[C@@H](CO)[C@H](c3ccc(F)cc3)C2)c1 (relative stereo) [Example 206, {Trans-4-(4-fluorophenyl)-1-[(1-methyl-1H-imidazol-4-yl)sulfonyl]pyrrolidin-3-yl}methanol]	≤ 10

same assay, conditions: radioligand binding, recombinant CHO cell membranes expressing human GlyT1c

SMILES	Ki [µM]
Cn1cnc(S(=O)(=O)N2CC(Nc3ccc(F)c(Cl)c3)C([C@@H]3CCCO3)C2)c1 (stereo partly drawn) [Example 825, N-(3-chloro-4-fluorophenyl)-1-[(1-methyl-1H-imidazol-4-yl)sulfonyl]-4-[(2S)-tetrahydrofuran-2-yl]pyrrolidin-3-amine]	≤ 1
Cn1cnc(S(=O)(=O)N2C[C@@H](Nc3ccc(F)c(Cl)c3)[C@H](C3CCOC3)C2)c1 (relative stereo) [Example 830, trans -N-(3-chloro-4-fluorophenyl)-1-[(1-methyl-1H-imidazol-4-yl)sulfonyl] -4-(tetrahydrofuran-3 - yl)pyrrolidin-3-amine]	≤ 10

From patent EP2970215B1, “PYRROLIDINE DERIVATIVES, PHARMACEUTICAL COMPOSITIONS CONTAINING THEM, AND THEIR USE IN THERAPY” (AbbVie Deutschland GmbH & Co. KG, priority 2013, dated 2014)
